# Test results reported in ChEMBL document CHEMBL3885861, “Open TG-GATES”.
# Organism: Rattus norvegicus
# Test: Open TG-GATES - Regimen: Single
# Assay type: toxicity, organism-based, Sprague-Dawley
# Set-up: regimen Single, gender Male, age 6 weeks
# Details: in vivo, po, 300 mg/kg, route gavage, dose level Middle; for APTT / Bas / Eos / Fbg / Hb / Ht / Lym / MCH / MCHC / MCV / Mono / Neu / PT / Plat / RBC / Ret / WBC: tissue Blood; for KIDNEY_L / KIDNEY_R / KIDNEY_TOTAL: tissue Kidney; for LIVER: tissue Liver; for A/G / ALP / ALT / AST / BUN / CRE / Ca / Cl / DBIL / GLC / IP / K / LDH / Na / PL / RALB / TBIL / TC / TG / TP / gamma-GTP: tissue Plasma
smiles,measurement,setting,value
COC1=CC(=O)C[C@@H](C)[C@]12Oc1c(Cl)c(OC)cc(OC)c1C2=O [GRISEOFULVIN],TERMINAL_BW,3 h,212.4 g
same,APTT,3 h,18.3 s
same,Bas,3 h,0%
same,Eos,3 h,1.2%
same,Fbg,3 h,229.2 mg/dL
same,Hb,3 h,12.7 g/dL
same,Ht,3 h,37.4%
same,Lym,3 h,71.6%
same,MCH,3 h,21.5 pg
same,MCHC,3 h,34.1%
same,MCV,3 h,63.1 fL
same,Mono,3 h,3.4%
same,Neu,3 h,23.2%
same,PT,3 h,12.9 s
same,Plat,3 h,130.7 x10_4/uL
same,RBC,3 h,592 x10_4/ul
same,Ret,3 h,7.8%
same,WBC,3 h,110.1 x10_2/uL
same,KIDNEY_L,3 h,0.9 g
same,KIDNEY_R,3 h,0.9 g
same,KIDNEY_TOTAL,3 h,1.9 g
same,LIVER,3 h,9.7 g
same,A/G,3 h,1.6
same,ALP,3 h,1144 IU/L
same,ALT,3 h,40.8 IU/L
same,AST,3 h,69.2 IU/L
same,BUN,3 h,11.2 mg/dL
same,CRE,3 h,0.3 mg/dL
same,Ca,3 h,11 mg/dL
same,Cl,3 h,104.2 meq/L
same,DBIL,3 h,0.2 mg/dL
same,GLC,3 h,190.4 mg/dL
same,IP,3 h,8.7 mg/dL
same,K,3 h,4 meq/L
same,LDH,3 h,113.8 IU/L
same,Na,3 h,140.8 meq/L
same,PL,3 h,175.8 mg/dL
same,RALB,3 h,3.3 g/dL
same,TBIL,3 h,0.2 mg/dL
same,TC,3 h,84.8 mg/dL
same,TG,3 h,134.8 mg/dL
same,TP,3 h,5.3 g/dL
same,gamma-GTP,3 h,1.2 IU/L
same,TERMINAL_BW,6 h,212.5 g
same,APTT,6 h,17.7 s
same,Bas,6 h,0%
same,Eos,6 h,1%
same,Fbg,6 h,220.2 mg/dL
same,Hb,6 h,12.8 g/dL
same,Ht,6 h,38.1%
same,Lym,6 h,72.6%
same,MCH,6 h,21.8 pg
same,MCHC,6 h,33.6%
same,MCV,6 h,64.7 fL
same,Mono,6 h,3.6%
same,Neu,6 h,22.4%
same,PT,6 h,13.1 s
same,Plat,6 h,129.2 x10_4/uL
same,RBC,6 h,588.6 x10_4/ul
same,Ret,6 h,7.9%
same,WBC,6 h,82.9 x10_2/uL
same,KIDNEY_L,6 h,1 g
same,KIDNEY_R,6 h,1 g
same,KIDNEY_TOTAL,6 h,2 g
same,LIVER,6 h,9.5 g
same,A/G,6 h,1.8
same,ALP,6 h,1072.4 IU/L
same,ALT,6 h,37.2 IU/L
same,AST,6 h,68.4 IU/L
same,BUN,6 h,10.2 mg/dL
same,CRE,6 h,0.4 mg/dL
same,Ca,6 h,10.8 mg/dL
same,Cl,6 h,103.2 meq/L
same,DBIL,6 h,0.096 mg/dL
same,GLC,6 h,205.6 mg/dL
same,IP,6 h,9.7 mg/dL
same,K,6 h,4 meq/L
same,LDH,6 h,139.2 IU/L
same,Na,6 h,141.4 meq/L
same,PL,6 h,150.6 mg/dL
same,RALB,6 h,3.4 g/dL
same,TBIL,6 h,0.2 mg/dL
same,TC,6 h,79 mg/dL
same,TG,6 h,50.4 mg/dL
same,TP,6 h,5.4 g/dL
same,gamma-GTP,6 h,1.4 IU/L
